This is an account of results in patent publication US7169393B2, “Antigenic peptide fragments of VapA protein, and uses thereof” (Rural Industries Research & Development Coporation, priority 2000, dated 2007).

In this test the test system is antibodies in sera of foals (goat anti-horse IgG detection). In words: Peptide ELISA: biotinylated overlapping VapA peptides screened with foal sera. The test is classed as binding. The settings on record: for number of positive sera recognizing (positive with) the peptide: fifty-one positive sera (foals with current R. equi disease), 1 in 250, positive = at least twice background OD at 450 nm. From the text:
Biotinylated peptides synthesized by Mimotopes, Victoria, Australia were used in all assays. The peptide bank used in the initial screening of sera was designed based upon the published sequence of VapA (Genbank accession No: D21236). A total of 50 overlapping peptides, each 11 amino acid residues in length (offset by 3 residues at a time) were synthesized beginning from the predicted signal peptide cleavage site between amino acids 31 and 32 up to and including the C terminus.
A total of seventy foal sera, most of these from animals aged between 4 to 12 weeks, were used to screen the peptides. Fifty-one sera were from foals with current R. equi disease (positive sera). Sixteen sera were from foals with no known history of R. equi infection and three sera were from foals that had recovered from R. equi infection 10 months previously (negative sera). Thirty-nine of the positive sera and all negative sera were obtained from studs in South Australia and New South Wales, Australia.
Biotin-SGSG(spacer) labelled peptide units were used as antigen targets. Neutravidin bound to the surface of a micro-titre plate was then used to bind the biotin labelled peptide to the plate. The procedure is as follows:
A solution of neutravidin was diluted 1 in 300 in sterile distilled water to a final concentration of 3.3 μg/ml, and 100 μl per well was added to a micro-titre plate and the plate was left overnight at 37° C. 200 μl 1% casein/1×PBS/0.05% Tween 20 was then added to each well and the plate was left for at least 1 hour at room temperature (or at 4° C. if left longer) before the solution in the plate was flicked out. The plate was then washed five times with 1×PBS/0.05% Tween 20 using an automatic plate washer and the plates were dried by slapping against absorbent paper. […]
The plate was then read using an ELISA plate reader at 450 nm.
Interpretation of data. […] The background OD was the mean of the lowest 50% of all OD values obtained with that particular serum and all OD readings that were twice this value were considered positive. […]
(An ELISA detects its analyte on a solid surface through an enzyme-linked reagent.)

With NLQKDEPNGRA [Seq I.D. No. 47], the “number of positive sera recognizing (positive with) the peptide” value is “fifty-one”. In addition, the “number of positive sera positive with only this peptide” value (fifty-one positive sera, fifty-peptide bank) is on record as “two”. In the case of YLNINFFDSSG [Seq I.D. No. 133], the “number of positive sera recognizing (positive with) the peptide” value was “Ten”.
